System: A/NJ/15/2007 (H1N1 - H274Y)
Type: cell-based, influenza A virus

Cl.Cl.Nc1ncnc2c([C@@H]3N[C@H](CO)[C@@H](O)[C@H]3O)c[nH]c12 [compound 12i, (2S,3S,4R,5R)-2-(4-amino-5H-pyrrolo[3,2-d]pyrimidin-7-yl)-5-(hydroxymethyl)pyrrolidine-3,4-diol dihydrochloride]
EC50: 1.39 µg/mL

Source: US9580428B2, “Compositions and methods for inhibiting viral polymerase” (priority 2012, dated 2017)
